Bridges are numbered along the chain shown (N, C = ends). Where no end group is shown, it is not given here.
Assays:
Assay type in all cases: cell-based
[1] = tested on: Staphylococcus aureus
[2] = tested on: Septoria tritici
[3] = tested on: Rhizoctonia solani Kuhn
[4] = tested on: Escherichia coli
[5] = tested on: Phytophthora infestance; conditions: V8 juice medium, 20° C., 50 μg protein spotted
[6] = tested on: Pyricularia oryzae; conditions: 50 μg protein spotted
[7] = tested on: Rhizoctonia solani; assay: Anti-filamentous fungal activity, inhibitory circle on agar plate; conditions: 1 μl sample spotted, culture 24 hours at 25° C.
Procedure: Rhizoctonia solani microorganisms were cultured in a potato dextrose (PD) medium (Difco) at 25° C. for 5 days, and then their hyphae were cut thin with a homogenizer. From the resulting suspension of thin hyphae, a clump of hyphae was removed, and the hyphae were recovered by centrifugation and adjusted to a density of 10^5 hyphae/ml with PD medium. A PDA medium was added in a solution form to 250 μl hypha suspension to form 5 ml suspension which was then spread on a Petri dish (diameter, 8.4 cm). After the medium was solidified, 1 μl sample for activity evaluation was spotted thereon followed by culture for 24 hours at 25° C., and the size of an inhibitory circle formed around the spot was measured.
The above-described method of evaluating anti-Rhizoctonia solani activity was used to evaluate the activity of the 4 synthetic proteins.

Substance | Inhibitory circle [1] | Inhibitory circle [2] | Inhibitory circle [3] | Inhibitory circle [4] | Inhibitory circle [5] | Inhibitory circle [6] | Inhibitory circle [7]
SP4080: protein consisting of 36 amino acid residues, SEQ ID NO:7, from Coconut rhinoceros beetle; chemically synthesized with disulfide linkages (ELPKLPDDKVLIRSRSNCPKGKVWNGFDCKSPFAFS; disulfide 18-29 (inferred)) | ⊚ (key: ⊚: Inhibitory circle of 4 mm or more; ◯: Inhibitory circle of less than 4 mm; X: No activity) | ◯ (key: ⊚: Inhibitory circle of 4 mm or more; ◯: Inhibitory circle of less than 4 mm; X: No activity) | ⊚ (key: ⊚: Inhibitory circle of 4 mm or more; ◯: Inhibitory circle of less than 4 mm; X: No activity) | ⊚ (key: ⊚: Inhibitory circle of 4 mm or more; ◯: Inhibitory circle of less than 4 mm; X: No activity) | ◯ (Inhibitory circle of less than 4 mm) | ◯ (Inhibitory circle of less than 4 mm) | ⊚ (Inhibitory circle of 4 mm or more)
SP4266: protein consisting of 38 amino acid residues in total represented by SEQ ID NO:8; chemically synthesized (DAELPKLPDDKVLIRSRSNCPKGKVWNGFDCKSPFAFS; Oryctes rhinoceros) | – | – | – | – | – | – | ⊚ (Inhibitory circle of 4 mm or more)
SP4337: protein consisting of 38 amino acid residues in total represented by SEQ ID NO:9; chemically synthesized (ELPKLPDDKVLIRSRSNCPKGKVWNGFDCKSPFAFSKK; Oryctes rhinoceros) | – | – | – | – | – | – | ⊚ (Inhibitory circle of 4 mm or more)
SP4523: protein consisting of 40 amino acid residues in total represented by SEQ ID NO:10; chemically synthesized (DAELPKLPDDKVLIRSRSNCPKGKVWNGFDCKSPFAFSKK; Oryctes rhinoceros) | – | – | – | – | – | – | ⊚ (Inhibitory circle of 4 mm or more)

Source: patent US7041808B2 (priority 2001, dated 2006)
